Measurements taken from ChEMBL document CHEMBL3046218, “Characterization of sensitivity of Rhizoctonia solani, causing rice sheath blight, to mepronil and boscalid” (Crop Prot, 2009).
In brackets after ≈: the same amount, converted by molar mass.

Experiments:
Rhizoctonia solani [1] = assay: Antifungal activity against mepronil-resistant Rhizoctonia solani JSR3 after 2 days; format: functional, organism-based; conditions: JSR3, 48 h
Rhizoctonia solani [2] = assay: Antifungal activity against mepronil-resistant Rhizoctonia solani JSR2 after 2 days; format: functional, organism-based; conditions: JSR2, 48 h
Rhizoctonia solani [3] = assay: Antifungal activity against mepronil-resistant Rhizoctonia solani JSR1 after 2 days; format: functional, organism-based; conditions: JSR1, 48 h
Rhizoctonia solani [4] = assay: Antifungal activity against mepronil-sensitive wild type Rhizoctonia solani JS7 after 2 days; format: functional, organism-based; conditions: JS7, 48 h
Rhizoctonia solani [5] = assay: Antifungal activity against mepronil-resistant Rhizoctonia solani ZJR2 after 2 days; format: functional, organism-based; conditions: ZJR2, 48 h
Rhizoctonia solani [6] = assay: Antifungal activity against mepronil-resistant Rhizoctonia solani ZJR3 after 2 days; format: functional, organism-based; conditions: ZJR3, 48 h
Rhizoctonia solani [7] = assay: Antifungal activity against mepronil-resistant Rhizoctonia solani ZJR1 after 2 days; format: functional, organism-based; conditions: ZJR1, 48 h
Rhizoctonia solani [8] = assay: Antifungal activity against mepronil-sensitive wild type Rhizoctonia solani ZJ-1 after 2 days; format: functional, organism-based; conditions: ZJ-1, 48 h
Rhizoctonia solani [9] = assay: Resistant factor, ratio of EC50 for mepronil-resistant Rhizoctonia solani ZJR1 to EC50 for mepronil-sensitive wild type Rhizoctonia solani ZJ-1; format: functional
Rhizoctonia solani [10] = assay: Resistant factor, ratio of EC50 for mepronil-resistant Rhizoctonia solani JSR3 to EC50 for mepronil-sensitive wild type Rhizoctonia solani JS7; format: functional
Rhizoctonia solani [11] = assay: Resistant factor, ratio of EC50 for mepronil-resistant Rhizoctonia solani JSR2 to EC50 for mepronil-sensitive wild type Rhizoctonia solani JS7; format: functional
Rhizoctonia solani [12] = assay: Resistant factor, ratio of EC50 for mepronil-resistant Rhizoctonia solani JSR1 to EC50 for mepronil-sensitive wild type Rhizoctonia solani JS7; format: functional
Rhizoctonia solani [13] = assay: Resistant factor, ratio of EC50 for mepronil-resistant Rhizoctonia solani ZJR3 to EC50 for mepronil-sensitive wild type Rhizoctonia solani ZJ-1; format: functional
Rhizoctonia solani [14] = assay: Resistant factor, ratio of EC50 for mepronil-resistant Rhizoctonia solani ZJR2 to EC50 for mepronil-sensitive wild type Rhizoctonia solani ZJ-1; format: functional

Structure (SMILES) | EC50 (Rhizoctonia solani [1]) | EC50 (Rhizoctonia solani [2]) | EC50 (Rhizoctonia solani [3]) | EC50 (Rhizoctonia solani [4]) | EC50 (Rhizoctonia solani [5]) | EC50 (Rhizoctonia solani [6]) | EC50 (Rhizoctonia solani [7]) | EC50 (Rhizoctonia solani [8]) | Ratio EC50 (Rhizoctonia solani [9]) | Ratio EC50 (Rhizoctonia solani [10]) | Ratio EC50 (Rhizoctonia solani [11]) | Ratio EC50 (Rhizoctonia solani [12]) | Ratio EC50 (Rhizoctonia solani [13]) | Ratio EC50 (Rhizoctonia solani [14])
CO/N=C(/C(=O)OC)c1ccccc1COc1ccccc1C [KRESOXIM-METHYL] | 0.16 µg/mL (≈ 0.511 µM) | 0.14 µg/mL (≈ 0.447 µM) | 0.2 µg/mL (≈ 0.638 µM) | 0.16 µg/mL (≈ 0.511 µM) | 0.29 µg/mL (≈ 0.925 µM) | 0.37 µg/mL (≈ 1.18 µM) | 0.33 µg/mL (≈ 1.05 µM) | 0.34 µg/mL (≈ 1.09 µM) |  |  |  |  |  | 
CO/C=C(/C(=O)OC)c1ccccc1Oc1cc(Oc2ccccc2C#N)ncn1 [AZOXYSTROBIN] | 0.19 µg/mL (≈ 0.471 µM) | 0.18 µg/mL (≈ 0.446 µM) | 0.17 µg/mL (≈ 0.421 µM) | 0.19 µg/mL (≈ 0.471 µM) | 0.34 µg/mL (≈ 0.843 µM) | 0.32 µg/mL (≈ 0.793 µM) | 0.32 µg/mL (≈ 0.793 µM) | 0.32 µg/mL (≈ 0.793 µM) |  |  |  |  |  | 
OCC1=C[C@H](N[C@H]2C[C@H](CO)[C@@H](O[C@@H]3O[C@H](CO)[C@@H](O)[C@H](O)[C@H]3O)[C@H](O)[C@H]2O)[C@H](O)[C@@H](O)[C@@H]1O [VALIDAMYCIN] | 0.14 µg/mL (≈ 0.281 µM) | 0.18 µg/mL (≈ 0.362 µM) | 0.16 µg/mL (≈ 0.322 µM) | 0.18 µg/mL (≈ 0.362 µM) | 0.09 µg/mL (≈ 0.181 µM) | 0.1 µg/mL (≈ 0.201 µM) | 0.08 µg/mL (≈ 0.161 µM) | 0.09 µg/mL (≈ 0.181 µM) |  |  |  |  |  | 
O=C(Nc1ccccc1-c1ccc(Cl)cc1)c1cccnc1Cl [BOSCALID] | 2.08 µg/mL (≈ 6.06 µM) | 2.13 µg/mL (≈ 6.21 µM) | 2.26 µg/mL (≈ 6.58 µM) | 2.15 µg/mL (≈ 6.26 µM) | 2.15 µg/mL (≈ 6.26 µM) | 1.93 µg/mL (≈ 5.62 µM) | 1.87 µg/mL (≈ 5.45 µM) | 1.98 µg/mL (≈ 5.77 µM) |  |  |  |  |  | 
Cc1ccccc1C(=O)Nc1cccc(OC(C)C)c1 [MEPRONIL] | 20.6 µg/mL (≈ 76.3 µM) | 14.2 µg/mL (≈ 52.6 µM) | 8.56 µg/mL (≈ 31.8 µM) | 0.098 µg/mL (≈ 0.364 µM) | 12.7 µg/mL (≈ 47 µM) | 20.8 µg/mL (≈ 77.3 µM) | 13.5 µg/mL (≈ 50.3 µM) |  | 116.7 | 209.8 | 144.5 | 87.3 | 179.5 | 109.2
